Numbered stars: 1 amine (or outer) side, 2 acyl side, 3 side chain; on linkers, the order of the positions; unused ones are H or OH. Bridge positions count the residues as written; N and C are the ends. Square brackets hold non-standard residues; d marks the D form. Peptide text beside a SMILES is read from it. Bip = N[C@@H](Cc1ccc(-c2ccccc2)cc1)C(=O)O; Phe(4-NH2) = Nc1ccc(C[C@H](N)C(=O)O)cc1; d(hPhe) = N[C@H](CCc1ccccc1)C(=O)O; Suc = O=C(CCC(=O)[*:2])[*:1]
Assays:
[1] = test system: TNF-α (degradation of IkB in HeLa cells or A431 cells); experiment: Human cell-based assay: inhibition of TNF-α induced degradation of IkB; details: HeLa or A431 cells
rat paw edema model [2] = experiment: Rat paw edema model (carrageenan), anti-inflammatory activity; assay type: in vivo, Sprague-Dawley (SD) rats
rat paw edema model [3] = experiment: as above; assay type: in vivo, Sprague-Dawley (SD) rats; details: Table 10; 3.0 mg/kg PO; 2 h post-carrageenan

**Q.** With `O=C1CCC(=O)N[C@H](CCc2ccccc2)C(=O)N[C@@H](Cc2ccc(-c3ccccc3)cc2)C(=O)N[C@H](Cc2ccccc2)C(=O)N[C@H](C(=O)N[C@@H](Cc2ccccc2)C(=O)O)Cc2ccc(cc2)N1` [Compound 202] ([d(hPhe)][Bip][dF][Phe(4-NH2)]F-OH; linker N-4 via Suc) as the compound, how does the inhibition at 5 µM ([1]; 5 μM compound, read-out: Inhibition at Various Compound Concentrations, 5 μM) read?
**A.** 10 to 50%

**Q.** What about the inhibition at 10 µM ([1]; 10 μM compound, read-out: Inhibition at Various Compound Concentrations, 10 μM) of the same compound?
**A.** 50 to 80%

**Q.** What about the “Change in Paw Volume” value (rat paw edema model [2]; Table 3, 0.3 mg/kg IV, 2 h post-carrageenan) of the same compound?
**A.** 0.42 ± 0.20 mL

**Q.** And the “Change in Paw Volume” value (rat paw edema model [2]; Table 3, 0.3 mg/kg IV, 4 h post-carrageenan)?
**A.** 1.01 ± 0.31 mL

**Q.** And the “Change in Paw Volume” value (rat paw edema model [2]; Table 3, 0.3 mg/kg IV, 6 h post-carrageenan)?
**A.** 1.16 ± 0.20 mL

**Q.** And the “Change in Paw Volume” value (rat paw edema model [2]; Table 9, 0.05 mg/kg IV, 2 h post-carrageenan)?
**A.** 1.20 ± 0.09 mL

**Q.** And the “Change in Paw Volume” value (rat paw edema model [2]; Table 9, 0.05 mg/kg IV, 4 h post-carrageenan)?
**A.** 1.56 ± 0.22 mL

**Q.** What about the “Change in Paw Volume” value (rat paw edema model [2]; Table 9, 0.05 mg/kg IV, 6 h post-carrageenan) of the same compound?
**A.** 1.67 ± 0.18 mL

**Q.** What about the “Change in Paw Volume” value (rat paw edema model [2]; Table 9, 0.1 mg/kg IV, 2 h post-carrageenan) of the same compound?
**A.** 0.99 ± 0.15 mL

**Q.** And the “Change in Paw Volume” value (rat paw edema model [2]; Table 9, 0.1 mg/kg IV, 4 h post-carrageenan)?
**A.** 1.41 ± 0.26 mL

**Q.** And the “Change in Paw Volume” value (rat paw edema model [2]; Table 9, 0.1 mg/kg IV, 6 h post-carrageenan)?
**A.** 1.62 ± 0.19 mL

**Q.** And the “Change in Paw Volume” value (rat paw edema model [2]; Table 9, 0.3 mg/kg IV, 2 h post-carrageenan)?
**A.** 0.70 ± 0.13 mL

**Q.** And the “Change in Paw Volume” value (rat paw edema model [2]; Table 9, 0.3 mg/kg IV, 4 h post-carrageenan)?
**A.** 1.09 ± 0.06 mL

**Q.** And the “Change in Paw Volume” value (rat paw edema model [2]; Table 9, 0.3 mg/kg IV, 6 h post-carrageenan)?
**A.** 1.15 ± 0.12 mL

**Q.** And the “Change in Paw Volume” value (rat paw edema model [2]; Table 9, 1.0 mg/kg IV, 2 h post-carrageenan)?
**A.** 0.60 ± 0.04 mL

**Q.** And the “Change in Paw Volume” value (rat paw edema model [2]; Table 9, 1.0 mg/kg IV, 4 h post-carrageenan)?
**A.** 0.98 ± 0.08 mL

**Q.** And the “Change in Paw Volume” value (rat paw edema model [2]; Table 9, 1.0 mg/kg IV, 6 h post-carrageenan)?
**A.** 1.14 ± 0.05 mL

**Q.** What about the “Change in Paw Volume” value (rat paw edema model [2]; Table 9, 10 mg/kg PO (suspension in Vehicle A), 2 h post-carrageenan) of the same compound?
**A.** 1.12 ± 0.15 mL

**Q.** And the “Change in Paw Volume” value (rat paw edema model [2]; Table 9, 10 mg/kg PO (suspension in Vehicle A), 4 h post-carrageenan)?
**A.** 1.35 ± 0.27 mL

**Q.** And the “Change in Paw Volume” value (rat paw edema model [2]; Table 9, 10 mg/kg PO (suspension in Vehicle A), 6 h post-carrageenan)?
**A.** 1.42 ± 0.22 mL

**Q.** What about the “Change in Paw Volume” value (rat paw edema model [2]; Table 10, 0.3 mg/kg PO, 2 h post-carrageenan) of the same compound?
**A.** 1.49 ± 0.14 mL

**Q.** What about the “Change in Paw Volume” value (rat paw edema model [2]; Table 10, 0.3 mg/kg PO, 4 h post-carrageenan) of the same compound?
**A.** 1.59 ± 0013 mL

**Q.** And the “Change in Paw Volume” value (rat paw edema model [2]; Table 10, 0.3 mg/kg PO, 6 h post-carrageenan)?
**A.** 1.65 ± 0.10 mL

**Q.** What about the “Change in Paw Volume” value (rat paw edema model [2]; Table 10, 1.0 mg/kg PO, 2 h post-carrageenan) of the same compound?
**A.** 1.43 ± 0.18 mL

**Q.** And the “Change in Paw Volume” value (rat paw edema model [2]; Table 10, 1.0 mg/kg PO, 4 h post-carrageenan)?
**A.** 1.45 ± 0.16 mL

**Q.** And the “Change in Paw Volume” value (rat paw edema model [2]; Table 10, 1.0 mg/kg PO, 6 h post-carrageenan)?
**A.** 1.62 ± 0.14 mL

**Q.** What about the “Change in Paw Volume” value (rat paw edema model [2]; Table 10, 3.0 mg/kg PO, 4 h post-carrageenan) of the same compound?
**A.** 1.42 ± 0.09 mL

**Q.** And the “Change in Paw Volume” value (rat paw edema model [2]; Table 10, 3.0 mg/kg PO, 6 h post-carrageenan)?
**A.** 1.50 ± 0.09 mL

**Q.** What about the “Change in Paw Volume” value (rat paw edema model [2]; Table 10, 10 mg/kg PO, 2 h post-carrageenan) of the same compound?
**A.** 1.17 ± 0.17 mL

**Q.** What about the “Change in Paw Volume” value (rat paw edema model [2]; Table 10, 10 mg/kg PO, 4 h post-carrageenan) of the same compound?
**A.** 1.29 ± 0.06 mL

**Q.** What about the “Change in Paw Volume” value (rat paw edema model [2]; Table 10, 10 mg/kg PO, 6 h post-carrageenan) of the same compound?
**A.** 1.51 ± 0.06 mL

**Q.** What about the “Change in Paw Volume” value (rat paw edema model [3]) of the same compound?
**A.** 1.25 ± 0.08 mL
